Measurements reported in patent US9776972B2, “Pyrazole derivatives as arginine methyltransferase inhibitors and uses thereof” (priority 2013, dated 2017).
Where two headings read alike, the source gives them in different places.

Columns and labels:
human PRMT1 = biological target: T1, human PRMT1 (Homo sapiens, UniProt Q99873); experiment: PRMT1 Biochemical Assay (3H-SAM Flashplate, peptide substrate)
T1 construct: GST-tagged PRMT1; made in house; host or cells: High Five insect cells (baculovirus)
In short: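 GST-tagged PRMT1 from baculovirus-infected cells, preincubated with compounds 30 min at room temperature in 20 mM Bicine pH 7.6, 1 mM TCEP, 0.005% BSG, 0.002% Tween 20. Reaction started with ³H-SAM plus biotinylated peptide, stopped with 300 µM cold SAM.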

[1] = test system: mono-methyl arginine in RKO cells; experiment: RKO Methylation Assay, In Cell Western (ICW) for mono-methyl arginine and DNA content; assay type: cell-based; settings: Homo sapiens, RKO, 72 h
In short: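 RKO cells treated with compound for 72 hours at 37 °C, then methanol-fixed and stained overnight at 4 °C with anti-mono-methyl arginine antibody, plus DRAQ5 for DNA. Signal ratio from 700 and 800 nm infrared scans normalized to DMSO (minimum) and 20 μM reference compound (maximum); EC30 from triplicate curves.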

[2] = single experiment or average of multiple experiments
[3] = RKO cells, 72 hours, mono-methyl arginine, percent activation, class symbols, read-out: EC30 (In Cell Western data)
[4] = RKO cells, 72 hours, mono-methyl arginine, percent activation, single experiment or average of multiple experiments, read-out: EC30 (In Cell Western data, Numerical)

T1 sequence (Q99873 with tags, fused parts or gaps): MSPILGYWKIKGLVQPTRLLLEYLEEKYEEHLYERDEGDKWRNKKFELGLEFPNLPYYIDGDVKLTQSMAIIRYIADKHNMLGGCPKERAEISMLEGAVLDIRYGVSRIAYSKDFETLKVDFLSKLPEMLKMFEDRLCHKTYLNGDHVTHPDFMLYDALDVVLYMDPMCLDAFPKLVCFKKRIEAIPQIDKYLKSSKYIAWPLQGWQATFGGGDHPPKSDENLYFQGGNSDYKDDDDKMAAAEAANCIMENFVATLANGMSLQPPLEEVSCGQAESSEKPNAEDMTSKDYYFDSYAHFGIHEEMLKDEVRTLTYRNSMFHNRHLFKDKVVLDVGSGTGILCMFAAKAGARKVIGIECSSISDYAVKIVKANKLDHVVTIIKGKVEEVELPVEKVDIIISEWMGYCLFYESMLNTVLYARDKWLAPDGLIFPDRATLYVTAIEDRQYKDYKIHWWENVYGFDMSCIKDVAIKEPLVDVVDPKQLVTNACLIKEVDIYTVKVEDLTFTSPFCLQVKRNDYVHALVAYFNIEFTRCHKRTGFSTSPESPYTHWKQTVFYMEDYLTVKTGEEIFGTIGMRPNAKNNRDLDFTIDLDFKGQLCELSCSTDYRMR

Row | IC50 (human PRMT1) [nM] | IC50 (human PRMT1; [2]) [nM] | SMILES | EC30 [1, 3] [µM] | EC30 [1, 4] [µM] | EC30 ([1]; read-out: EC30 (In Cell Western data)) [µM] | EC30 ([1]; read-out: EC30 (In Cell Western data, Numerical, μM)) [µM]
1 | < 100 | 6.65 | CNCCN(C)Cc1c[nH]nc1-c1ccc(OC2COC2)cc1 [Compound 283] | < 3 | 0.379 |  | 
2 | < 100 | 13.3 | CNCCN(C)Cc1c[nH]nc1-c1ccc(OCC2CCOCC2)cc1 [Compound 284] | < 3 | 0.856 |  | 
3 | < 100 | 14.8 | CNCCN(C)Cc1c[nH]nc1-c1ccc(OCC2CCOC2)cc1 (centres unmarked) [Compound 285] | < 3 | 0.62 |  | 
4 | < 100 | 8.97 | CNCCN(C)Cc1c[nH]nc1-c1ccc(OCC2CC2)cc1 [Compound 288] | < 3 | 0.076 |  | 
5 | < 100 | 21.1 | CNCCN(C)Cc1c[nH]nc1-c1ccc(OCCOC)cc1 [Compound 289] | < 3 | 0.419 |  | 
6 | < 100 | 8.28 | CCC(CC)Oc1ccc(-c2n[nH]cc2CN(C)CCNC)cc1 [Compound 290] | < 3 | 0.021 |  | 
7 | < 100 | 27.3 | CNCCN(C)Cc1c[nH]nc1-c1ccc(OC2CCOCC2)c(Cl)c1 [Compound 292] | < 3 | 0.098 |  | 
8 | < 100 | 13.5 | CNCCN(C)Cc1c[nH]nc1-c1ccc(OC2CC2)cc1 [Compound 293] | < 3 | 0.336 |  | 
9 | < 100 | 28.7 | CNCCN(C)Cc1c[nH]nc1-c1ccc(NC(C)C)cc1 [Compound 295] | < 3 | 0.116 |  | 
10 | < 100 | 28.8 | CNCCN(C)Cc1c[nH]nc1-c1ccc(NCC(C)C)cc1 [Compound 296] | < 3 | 0.478 |  | 
11 | < 100 | 3.37 | CNCCN(C)Cc1c[nH]nc1-c1ccc(Oc2ccccc2)c(F)c1 [Compound 297] | < 3 | 0.08 |  | 
12 | < 100 | 7.87 | CNCCN(C)Cc1c[nH]nc1-c1ccc(OCC2CC2)c(F)c1 [Compound 298] | < 3 | 0.104 |  | 
13 | < 100 | 19.8 | CNCCN(C)Cc1c[nH]nc1-c1ccc(OC2CCC(O)CC2)cc1 (centres unmarked) [Compound 299] | < 3 | 0.877 |  | 
14 | < 100 | 27.9 | CNCCN(C)Cc1c[nH]nc1-c1ccc(N(C)C(C)C)cc1 [Compound 300] | < 3 | 0.611 |  | 
15 | < 100 | 6.43 | CNCCN(C)Cc1c[nH]nc1-c1ccc(OC2CC2)c(F)c1 [Compound 301] | < 3 | 0.128 |  | 
16 | < 100 | 33.4 | CNCCN(C)Cc1c[nH]nc1-c1ccc(Oc2ncccn2)cc1 [Compound 302] | < 3 | 0.976 |  | 
17 | < 100 | 27.9 | CNCCN(C)Cc1c[nH]nc1-c1ccc(Oc2cncnc2)cc1 [Compound 303] | < 3 | 0.712 |  | 
18 | < 100 | 6.59 | CNCCN(C)Cc1c[nH]nc1-c1ccc(OC2CCC2)cc1 [Compound 304] | < 3 | 0.155 |  | 
19 | < 100 | 6.36 | CNCCN(C)Cc1c[nH]nc1-c1ccc(OC2CCC2)c(F)c1 [Compound 305] | < 3 | 0.193 |  | 
20 | < 100 | 7.1 | CNCCN(C)Cc1c[nH]nc1-c1ccc(OCC(C)C)cc1 [Compound 306] | < 3 | 0.1 |  | 
21 | < 100 | 5.89 | CNCCN(C)Cc1c[nH]nc1-c1ccc(OCC2CCC2)cc1 [Compound 307] | < 3 | 0.109 |  | 
22 | < 100 | 7.07 | CC[C@@H](C)Oc1ccc(-c2n[nH]cc2CN(C)CCNC)cc1 [Compound 308] | < 3 | 0.065 |  | 
23 | < 100 | 6.7 | CC[C@H](C)Oc1ccc(-c2n[nH]cc2CN(C)CCNC)cc1 [Compound 309] | < 3 | 0.024 |  | 
24 | < 100 | 14.5 | CCC(COC)Oc1ccc(-c2n[nH]cc2CN(C)CCNC)cc1 (centres unmarked) [Compound 310] | < 3 | 0.032 |  | 
25 | < 100 | 21.6 | CNCCN(C)Cc1c[nH]nc1-c1ccc(OC(COC)C(C)C)cc1 (centres unmarked) [Compound 311] | < 3 | 0.227 |  | 
26 | < 100 | 11.6 | CNCCN(C)Cc1c[nH]nc1-c1ccc(Oc2ccncn2)cc1 [Compound 312] | < 3 | 0.824 |  | 
27 | < 100 | 34.9 | CNCCN(C)Cc1c[nH]nc1-c1ccc(C(C)(C)COC)cc1 [Compound 313] | < 3 | 0.894 |  | 
28 | < 100 | 18.2 | CNCCN(C)Cc1c[nH]nc1-c1ccc(OC(COC)CC(C)C)cc1 (centres unmarked) [Compound 314] | < 3 | 0.51 |  | 
29 | < 100 | 23.5 | CNCCN(C)Cc1c[nH]nc1-c1ccc(OC2CC(OC)C2)cc1 (centres unmarked) [Compound 315] | < 3 | 0.843 |  | 
30 | < 100 | 17.5 | CNCCN(C)Cc1c[nH]nc1-c1ccc(OC(COC)COC)cc1 [Compound 316] | < 3 | 0.063 |  | 

Row | SMILES | IC50 (human PRMT1) [nM] | IC50 (human PRMT1; [2]) [nM] | EC30 [1, 3] [µM] | EC30 [1, 4] [µM] | EC30 ([1]; read-out: EC30 (In Cell Western data)) [µM] | EC30 ([1]; read-out: EC30 (In Cell Western data, Numerical, μM)) [µM]
31 | CNCCN(C)Cc1c[nH]nc1-c1ccc(OC(CO)C(C)C)cc1 (centres unmarked) [Compound 286] | < 100 | 26.5 | < 3 | 0.812 |  | 
32 | CNCCN(C)Cc1c[nH]nc1-c1ccc(OC2CCOCC2)c(F)c1 [Compound 291] | < 100 | 15.6 |  |  | < 3 | 0.154
